Structures can show the parent of a compound that is named as a salt.
Biological target: LsrK (Salmonella typhimurium, UniProt Q8ZKQ6)
Assay: biochemical
Type: biochemical, S. typhimurium
Details: not given

LsrK, sequence (Q8ZKQ6 whole entry): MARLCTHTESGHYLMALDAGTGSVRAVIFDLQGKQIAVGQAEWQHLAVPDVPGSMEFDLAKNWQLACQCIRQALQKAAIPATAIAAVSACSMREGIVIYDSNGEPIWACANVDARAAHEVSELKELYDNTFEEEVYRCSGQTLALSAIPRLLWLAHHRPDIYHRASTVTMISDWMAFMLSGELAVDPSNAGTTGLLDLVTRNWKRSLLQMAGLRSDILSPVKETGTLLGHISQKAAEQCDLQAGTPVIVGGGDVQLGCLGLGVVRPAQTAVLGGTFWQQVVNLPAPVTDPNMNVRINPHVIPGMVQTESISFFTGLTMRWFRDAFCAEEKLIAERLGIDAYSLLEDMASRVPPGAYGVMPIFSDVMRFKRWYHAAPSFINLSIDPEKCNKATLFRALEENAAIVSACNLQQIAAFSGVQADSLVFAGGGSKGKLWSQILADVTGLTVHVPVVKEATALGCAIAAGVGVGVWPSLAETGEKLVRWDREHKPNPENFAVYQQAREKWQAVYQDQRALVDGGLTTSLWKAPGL

Row | Compound | inhibition at 50 µM
1 | C=C1CC[C@H](O)C/C1=C/C=C1\CCC[C@]2(C)[C@@H]([C@H](C)/C=C/[C@H](C)C(C)C)CC[C@@H]12 [ERGOCALCIFEROL] | 56%
2 | CC(C)=CCC[C@]1(C)C=Cc2c(O)c3c(c(CC=C(C)C)c2O1)O[C@]12C(=C[C@@H]4C[C@H]1C(C)(C)O[C@@]2(C/C=C(/C)C(=O)O)C4=O)C3=O [GAMBOGIC ACID] | 89%
3 | CCC(C)C(=O)O[C@@H]1C[C@@]2(C)[C@H](c3ccoc3)OC(=O)CC23OC2(C)O[C@]14[C@]1(C)[C@@H](CC(=O)OC)C5(C)CC1(O)[C@](O)(C5OC(=O)C1(C)OC1C)[C@@H](OC(C)=O)[C@]34O2 (stereo partly shown) [UTILIN] | 1%
4 | CC(C)[C@H](N)C(=O)OCCOCn1cnc2c(=O)[nH]c(N)nc21 [VALACYCLOVIR HYDROCHLORIDE] | 2%
5 | CCCCC(=O)Oc1ccccc1C(=O)O [VALERYL SALYCILATE] | 1%
6 | CCCC(CCC)C(=O)O [VALPROATE SODIUM] | 0%
7 | CN[C@H](CC(C)C)C(=O)N[C@H]1C(=O)N[C@@H](CC(N)=O)C(=O)N[C@H]2C(=O)N[C@H]3C(=O)N[C@H](C(=O)N[C@H](C(=O)O)c4cc(O)cc(O)c4-c4cc3ccc4O)[C@H](O)c3ccc(c(Cl)c3)Oc3cc2cc(c3O[C@@H]2O[C@H](CO)[C@@H](O)[C@H](O)[C@H]2O[C@H]2C[C@](C)(N)[C@H](O)[C@H](C)O2)Oc2ccc(cc2Cl)[C@H]1O [VANCOMYCIN HYDROCHLORIDE] | 0%
8 | CCCc1nc(C)c2c(=O)[nH]c(-c3cc(S(=O)(=O)N4CCN(CC)CC4)ccc3OCC)nn12 [VARDENAFIL HYDROCHLORIDE] | 1%
9 | CC(=O)O[C@H]1C[C@@H]2CC[C@@H]3[C@H](CC[C@@]4(C)[C@H]3C[C@H]([N+]3(C)CCCCC3)[C@@H]4OC(C)=O)[C@@]2(C)C[C@@H]1N1CCCCC1 [VECURONIUM BROMIDE] | 1%
10 | COc1ccc(CCN(C)CCCC(C#N)(c2ccc(OC)c(OC)c2)C(C)C)cc1OC (stereo not shown) [VERAPAMIL HYDROCHLORIDE] | 1%
11 | OC1CCCCC1N1CCC(c2ccccc2)CC1 (stereo not shown) [VESAMICOL HYDROCHLORIDE] | 1%
12 | Nc1ncnc2c1ncn2[C@@H]1O[C@H](CO)[C@@H](O)[C@@H]1O [VIDARABINE] | 0%
13 | C=CC(N)CCC(=O)O (stereo not shown) [VIGABATRIN] | 1%
14 | O=c1c2ccccc2oc2ccccc12 [XANTHONE] | 1%
15 | Nc1nc(=O)c2[nH]c(=O)cnc2[nH]1 [XANTHOPTERIN] | 2%
16 | COc1cc(O)c(C(C)=O)c(OC)c1 [XANTHOXYLIN] | 0%

Row | Compound | inhibition at 50 µM
17 | Cc1cccc(C)c1N=C1NCCCS1 [XYLAZINE] | 0%
18 | Cc1cc(C(C)(C)C)cc(C)c1CC1=NCCN1 [XYLOMETAZOLINE HYDROCHLORIDE] | 1%
19 | Cc1cn([C@H]2C[C@H](N=[N+]=[N-])[C@@H](CO)O2)c(=O)[nH]c1=O [ZIDOVUDINE [AZT], ZIDOVUDINE] | 36%
20 | CC(C)/C(O)=C1/C(=O)O[C@@H](c2ccoc2)[C@]2(C)C(O)[C@@H](O)[C@@]34OC5(C)OC67CC(C)(C(O)[C@]6(O)[C@@H](O)[C@]3(O5)C12)[C@H](CC(=O)O)[C@]74C (stereo partly shown) [[…] OF BUSSEIN] | 1%
21 | CC(C)=CCCC1(C)C=Cc2c(O)c3c(c(CC=C(C)C)c2O1)OC12C(=CCCC1C(C)(C)O[C@@]2(C/C=C(\C)C(=O)O)C(=O)O)C3=O (stereo partly shown) [[…]] | 75%
22 | CC(C)NNC(=O)c1ccncc1 [[…]] | 0%
23 | CCCCCC(=O)Cc1cc(O)cc(O)c1C(=O)Oc1cc(CC(=O)CCCCC)c(C(=O)O)c(OC)c1 [[…]] | 0%
24 | COC(=O)CC1C(C)(C)C(OC(C)=O)[C@@H]2[C@@H](OC(C)=O)[C@]34O[C@@]2(O)[C@]1(C)C3CC[C@]1(C)C4=CC(=O)O[C@H]1c1ccoc1 (stereo partly shown) [[…]] | 2%
25 | COc1cc(-c2coc3cc(O)c(OC)c(O)c3c2=O)cc(O)c1OC [[…]] | 5%
26 | Cc1cc(O)c(C=O)c2c1C(=O)Oc1c(C)c(O)c3c(c1O2)C(O)OC3=O (stereo not shown) [[…]] | 145%
27 | O=C(/C=C/C(=O)Oc1ccccc1C(=O)O)Oc1ccccc1C(=O)O [[…]] | 2%
28 | N#C/C(=C\c1cccc(O)c1)C(=O)O [alpha-CYANO-3-HYDROXYCINNAMIC ACID] | 2%
29 | N#C/C(=C\c1ccc(O)cc1)C(=O)O [alpha-CYANO-4-HYDROXYCINNAMIC ACID] | 1%
30 | CC1=C(/C=C/C(C)=C/C=C/C(C)=C/C=C/C=C(C)/C=C/C=C(C)/C=C/C2=C(C)CCCC2(C)C)C(C)(C)CCC1 [beta-CAROTENE] | 1%
31 | C/C=C(\C)C(=O)O[C@H]1[C@H](OC(C)=O)[C@@]2(CO)C(CC1(C)C)C1=CC[C@@H]3[C@@]4(C)CC[C@H](O[C@@H]5O[C@H](C(=O)O)[C@@H](O[C@@H]6O[C@H](CO)[C@@H](O)[C@H](O)[C@H]6O)[C@H](O)[C@H]5O[C@@H]5O[C@H](CO)[C@@H](O)[C@H](O)[C@H]5O)[C@H](CO)C4CC[C@@]3(C)[C@@]1(C)C[C@H]2O (stereo partly drawn) [beta-ESCIN] | 129%

Same assay, conditions: 50 µM

Row | Compound | Inhibition (%)
32 | O.O=C(O)[C@@H]1[C@H]2C[C@H]3c4[nH]c5ccccc5c4CCN3C[C@@H]2CC[C@@H]1O [YOHIMBIC ACID HYDRATE] | 1
33 | C=CCCCCCCCCC(=O)[O-].C=CCCCCCCCCC(=O)[O-].[Zn+2] [ZINC UNDECYLENATE] | 21
34 | CC(=O)O[C@@H]1CC2C(C)(C)[C@H](O)CC[C@]2(C)C2CC[C@@]3(C)[C@H](c4ccoc4)OC(=O)C4OC43[C@@]21C (stereo partly drawn) [alpha-DIHYDROGEDUNOL] | 1
35 | COc1cc2c(cc1OC)[C@@H]1C(=O)c3c(O)cc4c(c3O[C@@H]1CO2)C=CC(C)(C)O4 [alpha-TOXICAROL] | 10
36 | NC(C(=O)O)C(O)C(=O)O (stereo not drawn) [d.l-threo-3-HYDROXYASPARTIC ACID] | 3
37 | CC(=O)Oc1cccc(C)c1 [meta-CRESYL ACETATE] | 1
38 | AGELASINE | 102
39 | ASARININ (-) | 1
40 | BACITRACIN | 5
41 | BENZALKONIUM CHLORIDE | 121
42 | BERBAMINE HYDROCHLORIDE | 1
43 | CHLOROPHYLLIDE Cu COMPLEX Na SALT | 104
44 | CRESOL | 0
45 | GARLICIN | 10
46 | GRAMICIDIN | 0
47 | HECOGENIN | 2
48 | IVERMECTIN | 1
49 | KHAYANTHONE | 11
50 | MANGANESE TETRAKIS(4-CARBOXYPHENYL)PORPHYRIN CHLORDE | 1
51 | MECLOCYCLINE SULFOSALICYLATE | 93
52 | METHIONINE SULFOXIMINE (L) | 2
53 | NEOMYCIN SULFATE | 1
54 | POLYMYXIN B SULFATE | 48
55 | TANNIC ACID | 94
56 | TEICOPLANIN [TEICOPLANIN [A(2-1) shown]] | 148%

Tested on: rat
Assay: not given
Details: in vivo, po; cited from earlier work

Row | Compound | LD50
57 | C=C1CC[C@H](O)C/C1=C/C=C1\CCC[C@]2(C)[C@@H]([C@H](C)/C=C/[C@H](C)C(C)C)CC[C@@H]12 [ERGOCALCIFEROL] | 56 mg/kg

Same assay, conditions: ip, ref MicroSource annotations; cited from earlier work

Row | Compound | LD50
58 | CC(C)=CCC[C@]1(C)C=Cc2c(O)c3c(c(CC=C(C)C)c2O1)O[C@]12C(=C[C@@H]4C[C@H]1C(C)(C)O[C@@]2(C/C=C(/C)C(=O)O)C4=O)C3=O [GAMBOGIC ACID] | 88 mg/kg

Source: paper PMC6627609, “Targeting Quorum Sensing: High-Throughput Screening to Identify Novel LsrK Inhibitors” (International Journal of Molecular Sciences, 2019)
